From US10183950B2, “Thienopyrimidine inhibitors of atypical protein kinase C” (Cancer Research Technology Limited, priority 2011, dated 2019)

Biological target: T1, kinase-domain human PKCι (Homo sapiens, UniProt P41743)
T1 construct: Recombinant, kinase-domain human PKCι is expressed and purified in-house; made in house
T1 sequence (P41743 254-522 limits assumed): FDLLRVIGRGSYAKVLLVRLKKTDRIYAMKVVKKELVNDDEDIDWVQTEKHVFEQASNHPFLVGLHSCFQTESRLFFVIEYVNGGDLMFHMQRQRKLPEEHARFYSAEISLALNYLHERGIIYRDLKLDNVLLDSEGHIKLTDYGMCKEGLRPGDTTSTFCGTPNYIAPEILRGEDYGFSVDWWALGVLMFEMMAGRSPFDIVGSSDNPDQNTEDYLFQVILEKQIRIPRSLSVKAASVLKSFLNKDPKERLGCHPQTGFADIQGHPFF
Experiment: PKCι IC50 IMAP fluorescence polarisation assay, kinase-domain enzyme
Assay type: biochemical
Details: kinase domain PKCi at 2 μM ATP; read-out: IC50 in IMAP assay against kinase domain PKCi

Structure (SMILES) | IC50 [µM]
Cc1csc2c(OC[C@H]3CCCN3)nc(-c3ccncc3)nc12 [compound 476, 7-methyl-2-pyridin-4-yl-4-((R)-1-pyrrolidin-2-ylmethoxy)-thieno[3,2-d]pyrimidine] | 10 to 40
c1ccc(-c2cc3nc(-c4ccncc4)nc(N4CCCNCC4)c3s2)cc1 [compound 368, 4-[1,4]Diazepan-1-yl-6-phenyl-2-pyridin-4-yl-thieno[3,2-d]pyrimidine] | 1 to 10
CC(C)(C)c1ccc(-c2cc3nc(-c4ccncc4)nc(NCCN)c3s2)cc1 [compound 360, N*1*-[6-(4-tert-Butyl-phenyl)-2-pyridin-4-yl-thieno[3,2-d]pyrimidin-4-yl]-ethane-1,2-diamine] | 10 to 40
Cc1csc2c(OC[C@@H]3CCCN3)nc(-c3ccncc3)nc12 [compound 480, 7-Methyl-2-pyridin-4-yl-4-((S)-1-pyrrolidin-2-ylmethoxy)-thieno[3,2-d]pyrimidine] | 10 to 40
Cc1csc2c(N[C@@H]3CCNC3)nc(-c3ccncc3)nc12 [compound 312, (7-Methyl-2-pyridin-4-yl-thieno[3,2-d]pyrimidin-4-yl)-(R)-pyrrolidin-3-yl-amine] | 1 to 10

Same assay, conditions: kinase domain PKCi at 2 μM ATP; read-out: IC50 in IMAP assay against kinase domain PKCi (Activity)

Structure (SMILES) | IC50 [µM]
CC1CCc2c(sc3nc(-c4ccncc4)nc(NCCN)c23)C1 (stereo not shown) [compound 21, N*1*-(7-Methyl-2-pyridin-4-yl-5,6,7,8-tetrahydro-benzo[4,5]thieno[2,3-d]pyrimidin-4-yl)-ethane-1,2-diamine] | 0.1 to 1
C[C@@H](N)CNc1nc(-c2ccncc2)nc2sc3c(c12)CCCC3 [compound 2, (R)-N*1*-(2-Pyridin-4-yl-5,6,7,8-tetrahydro-benzo[4,5]thieno[2,3-d]pyrimidin-4-yl)-propane-1,2-diamine] | 0.1 to 1
CCc1c(C)sc2nc(-c3ccncc3)nc(NC[C@H](C)N)c12 [compound 31, (S)-N*1*-(5-Ethyl-6-methyl-2-pyridin-4-yl-thieno[2,3-d]pyrimidin-4-yl)-propane-1,2-diamine] | 1 to 10
c1cc(-c2nc(N3CCCNCC3)c3c4c(sc3n2)CCCC4)ccn1 [compound 14, 4-[1,4]Diazepan-1-yl-2-pyridin-4-yl-5,6,7,8-tetrahydro-benzo[4,5]thieno[2,3-d]pyrimidine] | 0.1 to 1
N[C@H]1C[C@@H]1Nc1nc(-c2ccncc2)nc2sc3c(c12)CCCC3 [compound 11, (1S,2S)-N-(2-Pyridin-4-yl-5,6,7,8-tetrahydro-benzo[4,5]thieno[2,3-d]pyrimidin-4-yl)-cyclopropane-1,2-diamine] | 10 to 40
C[C@@H]1CN[C@@H](C)CN1c1nc(-c2ccncc2)nc2sc3c(c12)CCCC3 [compound 10, 4-((2R,5S)-2,5-Dimethyl-piperazin-1-yl)-2-pyridin-4-yl-5,6,7,8-tetrahydro-benzo[4,5]thieno[2,3-d]pyrimidine] | 1 to 10

The next lines start with the values.

IC50 [µM] | Structure (SMILES)
1 to 10 | c1ccc(-c2cc3nc(-c4ccncc4)nc(N4CCNCC4)c3s2)cc1 [compound 301, 6-phenyl-4-piperazin-1-yl-2-pyridin-4-yl-thieno[3,2-d]pyrimidine]
10 to 40 | CC(C)c1cc2c(NC[C@@H](C)N)nc(-c3ccncc3)nc2s1 [compound 41, (R)-N*1*-(6-Isopropyl-2-pyridin-4-yl-thieno[2,3-d]pyrimidin-4-yl)-propane-1,2-diamine]
10 to 40 | Brc1cnccc1CN1CCN(c2nc(-c3ccncc3)nc3sc4c(c23)CCCC4)CC1 [compound 131, 4-[4-(3-Bromo-pyridin-4-ylmethyl)-piperazin-1-yl]-2-pyridin-4-yl-5,6,7,8-tetrahydro-benzo[4,5]thieno[2,3-d]pyrimidine]
10 to 40 | c1ccc(CN2CCN(c3nc(-c4ccncc4)nc4sc5c(c34)CCCC5)CC2)cc1 [compound 116, 4-(4-Benzyl-piperazin-1-yl)-2-pyridin-4-yl-5,6,7,8-tetrahydro-benzo[4,5]thieno[2,3-d]pyrimidine]
0.1 to 1 | Cc1c(C(N)=O)sc2nc(-c3ccncc3)nc(NC[C@@H](N)Cc3ccccc3)c12 [compound 74, 4-((S)-2-Amino-3-phenyl-propylamino)-5-methyl-2-pyridin-4-yl-thieno[2,3-d]pyrimidine-6-carboxylic acid amide]
